In the NIST ThermoML archive (doi:10.1016/j.jct.2015.08.014):

Conditions: Liquid; for electrical conductivity: Alternating current cell with electrodes; for viscosity: Capillary tube (Ostwald / Ubbelohde) method; for mass density: Vibrating tube method

CCCC[N+]1(C)CCCC1.N#CN=C=[N-] [1-butyl-1-methylpyrrolidinium dicyanamide]
electrical conductivity [S/m], 100 kPa
Conditions	273.15 K	283.15 K	293.15 K	298.15 K	303.15 K	313.15 K	323.15 K
Frequency=0.0005 MHz	0.522	0.786	1.122	1.315	1.525	1.99	2.525
Frequency=0.001 MHz	0.522	0.786	1.122	1.316	1.526	2	2.526
Frequency=0.0015 MHz	0.522	0.786	1.123	1.316	1.526	2	2.527
Frequency=0.002 MHz	0.522	0.786	1.123	1.316	1.527	2	2.528
Frequency=0.0025 MHz	0.522	0.786	1.123	1.317	1.527	2	2.528
Frequency=0.003 MHz	0.522	0.786	1.123	1.317	1.527	2	2.528
Frequency=0.00347222 MHz	0.523	0.786	1.123	1.317	1.527	2	2.528
Frequency=0.004 MHz	0.523	0.786	1.123	1.317	1.527	2	2.529
Frequency=0.00446429 MHz	0.523	0.786	1.123	1.317	1.527	2	2.529
Frequency=0.005 MHz	0.523	0.786	1.123	1.317	1.527	2	2.529
Frequency=0.005454 MHz	0.523	0.786	1.123	1.317	1.527	2	2.529
Frequency=0.006 MHz	0.523	0.786	1.123	1.317	1.527	2	2.529
Frequency=0.00652174 MHz	0.523	0.786	1.123	1.317	1.527	2	2.529
Frequency=0.00694444 MHz	0.523	0.786	1.123	1.317	1.527	2	2.529
Frequency=0.0075 MHz	0.523	0.786	1.123	1.318	1.527	2	2.529
Frequency=0.008 MHz	0.523	0.786	1.123	1.318	1.527	2	2.529
Frequency=0.00857143 MHz	0.523	0.786	1.123	1.318	1.527	2	2.529
Frequency=0.00892857 MHz	0.523	0.786	1.124	1.318	1.527	2	2.529
Frequency=0.00961538 MHz	0.523	0.786	1.124	1.318	1.527	2	2.529
Frequency=0.01 MHz	0.523	0.786	1.124	1.318	1.527	2	2.529

101.33 kPa
Conditions	electrical conductivity [S/m]	mass density [kg/m3]	viscosity [mPa·s]
273.15 K	0.523	1027.69	93.95
278.15 K	0.645	1024.82	74.27
283.15 K	0.786	1021.96	59.6
288.15 K	0.943	1019.11	48.6
293.15 K	1.123	1016.28	40.25
298.15 K	1.317	1013.45	33.71
303.15 K	1.527	1010.64	28.53
308.15 K	1.75	1007.84	24.53
313.15 K	2	1005.06	21.07
318.15 K	2.25	1002.28	18.37
323.15 K	2.529	999.525	16.15
328.15 K	–	996.781	–
333.15 K	–	994.049	–
